Data from patent US7750028B2, “Crystal modifications of 1-(2,6-difluorobenzyl)-1H-1, 2,3-triazole-4-carboxamide” (Novartis AG, priority 1997, dated 2010).

Key:
Format in all cases: physicochemical
[1] = thermodynamic investigations (thermomicroscopy, X-ray powder diffractometry, DSC, solubility tests) of crystal modifications; conditions: for thermodynamic stability: comparison of the crystal modifications A/A′, B and C
From the text: The modification A or A′ has significant advantages compared with the modification B and compared with the modification C.

[2] = dissolution rate in water; conditions: comparison between modifications
[3] = dissolution rate in gastric fluid; conditions: comparison between modifications

Structure (SMILES) | thermodynamic stability [1] | dissolution rate [2] | dissolution rate [3] | thermodynamic stability ([1]; listed as A′) | conversion of the crystals into modification B ([1]; at as low as room temperature) | thermodynamic stability ([1]; listed as Modification C) | conversion into other modifications ([1]; depending on experimental conditions)
NC(=O)c1cn(Cc2c(F)cccc2F)nn1 [modification A, 1-(2,6-difluorobenzyl)-1H-1,2,3-triazole-4-carboxamide] | substantially better thermodynamic stability than the modifications B and C | slower dissolution rate | slower dissolution rate | – | – | – | –
NC(=O)c1cn(Cc2c(F)cccc2F)nn1 [modification A′, 1-(2,6-difluorobenzyl)-1H-1,2,3-triazole-4-carboxamide] | – | slower dissolution rate | slower dissolution rate | substantially better thermodynamic stability than the modifications B and C | – | – | –
NC(=O)c1cn(Cc2c(F)cccc2F)nn1 [modification B, 1-(2,6-difluorobenzyl)-1H-1,2,3-triazole-4-carboxamide] | – | substantially faster dissolution rate | substantially faster dissolution rate | – | – | – | –
NC(=O)c1cn(Cc2c(F)cccc2F)nn1 [modification C, 1-(2,6-difluorobenzyl)-1H-1,2,3-triazole-4-carboxamide] | – | – | – | – | within a few weeks | the least stable of the three modifications | converted either into the modification A or A′ or into the modification B
